Legend:
Rat NHE-3 [1] = target: T1, Rat NHE-3 (Rattus norvegicus, UniProt P26433); test: Cell-based assay of NHE-3 activity (rat NHE-3 prompt inhibition); conditions: OK cells with rat NHE-3 gene, compound present during pH recovery; for IC50: read-out: Rat NHE3 pIC50 (prompt) (converted)
T1 construct: expressed in transfected cells; host or cells: Opossum kidney (OK) cells (ATCC), transfected by electroporation
Procedure, shortened: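 Opossum kidney cells electroporated with rat or human NHE-3, loaded with 5 μM BCECF-AM in NH4Cl-HEPES pH 7.4 for 30 min at RT, then acidified 10 min in Na+-free choline HEPES. Na+-dependent pH recovery rates from BCECF fluorescence, averaged over ≥2 replicates, gave pIC50.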

Rat NHE-3 [2] = target: T1, Rat NHE-3; test: Cell-based assay of NHE-3 activity (persistent inhibition, after washout); conditions: OK cells with rat NHE-3 gene, 60 min incubation, recovery initiated 40 min after compound washout; for IC50: read-out: Rat NHE3 pIC50 (persistent) (converted)
Procedure, shortened: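 OK cells transiently expressing rat NHE-3 were exposed to 0-30 μM compound in NaCl-HEPES pH 7.4 for 60 min, then washed free of drug before NH4Cl/BCECF-AM loading and acid-loading in Na+-free choline buffer. Na+-dependent pH recovery rates (mean of ≥2 replicates) gave pIC50.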

[3] = tested on: absorption of sodium from the intestinal lumen; test: Inhibition of intestinal sodium absorption (urinary sodium and fecal form); format: in vivo, Sprague-Dawley rats; conditions: rat, 3 mg/kg oral gavage, urine 16 h post-dose; asterisks = significance vs vehicle (*P<0.05, **P<0.01, ***P<0.001); read-out: uNa (% of vehicle)
Procedure, shortened: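 Sprague-Dawley rats (8 weeks, n=6) dosed by oral gavage with compound or water vehicle (10 mL/kg) in late afternoon, then housed in metabolic cages. Over 16 h, urinary sodium measured by ion chromatography and expressed as % of vehicle mean; fecal form scored 1–5, averaged from two observations.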

Fecal recovery = format: in vivo, Sprague Dawley rats; conditions: male, Sprague-Dawley, faeces, rat, 1 mg/kg oral gavage
Method: Three male Sprague Dawley rats were administered 1 mg/kg test compound by oral gavage. Feces were collected from study animals from 0-48 or 0-72 hours after dosing, dried by lyophilization, and homogenized. Replicate aliquots of 40-60 mg each were subjected to extraction/protein precipitation with 7:1 acetonitrile:water and centrifuged. Supernatants were diluted 1:10 in 50:50 acetonitrile:water prior to analysis by LC-MS/MS. Compound concentrations, determined by interpolation from a standard calibration curve prepared in blank feces matrix, were converted to the percentage of dosed material recovered by taking into account the total collected fecal matter. The percent recovery for each rat was reported as the mean of the calculations from replicate samples. The overall percent recovery (Fecal Recovery [%]) was reported as the mean percent recovery from three rats. Accurate quality control sample recoveries were confirmed in each run, and extraction efficiency was periodically verified.

T1 sequence (P26433 29-831): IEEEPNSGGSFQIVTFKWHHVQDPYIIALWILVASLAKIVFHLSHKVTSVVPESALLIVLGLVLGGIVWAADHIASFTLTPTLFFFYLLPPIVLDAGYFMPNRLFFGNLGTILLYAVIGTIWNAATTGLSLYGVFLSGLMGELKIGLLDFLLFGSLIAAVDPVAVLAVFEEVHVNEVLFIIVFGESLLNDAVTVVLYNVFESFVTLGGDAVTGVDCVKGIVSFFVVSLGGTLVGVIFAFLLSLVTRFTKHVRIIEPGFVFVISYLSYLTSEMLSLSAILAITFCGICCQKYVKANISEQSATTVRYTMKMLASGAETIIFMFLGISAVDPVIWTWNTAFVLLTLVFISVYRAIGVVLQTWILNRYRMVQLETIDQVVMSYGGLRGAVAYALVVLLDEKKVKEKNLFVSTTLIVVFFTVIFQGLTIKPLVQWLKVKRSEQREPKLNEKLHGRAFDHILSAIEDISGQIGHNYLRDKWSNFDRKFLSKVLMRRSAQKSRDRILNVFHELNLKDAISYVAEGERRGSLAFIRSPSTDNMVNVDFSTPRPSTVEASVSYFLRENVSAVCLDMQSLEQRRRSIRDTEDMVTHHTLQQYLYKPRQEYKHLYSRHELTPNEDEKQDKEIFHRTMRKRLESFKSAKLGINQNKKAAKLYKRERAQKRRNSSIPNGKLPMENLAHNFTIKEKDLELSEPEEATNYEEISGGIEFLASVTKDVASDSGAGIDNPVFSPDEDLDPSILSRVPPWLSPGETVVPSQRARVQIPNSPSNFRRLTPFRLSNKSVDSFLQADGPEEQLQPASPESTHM

Compound	Rat NHE3 pIC50 (prompt) (Rat NHE-3 [1])	Rat NHE3 pIC50 (persistent) (Rat NHE-3 [2])	response vs control in vivo at 3 mg/kg [3] [%]	dose excreted (Fecal recovery; collection time 48 h) [%]	IC50 (Rat NHE-3 [1]) [nM]	IC50 (Rat NHE-3 [2]) [nM]	dose excreted (Fecal recovery; collection time 72 h) [%]
CN1Cc2c(Cl)cc(Cl)cc2[C@H](c2cccc(S(=O)(=O)NCCOCCOCCNC(=O)NCCCC(N)(CCCNC(=O)NCCOCCOCCNS(=O)(=O)c3cccc([C@@H]4CN(C)Cc5c(Cl)cc(Cl)cc54)c3)CCCNC(=O)NCCOCCOCCNS(=O)(=O)c3cccc([C@@H]4CN(C)Cc5c(Cl)cc(Cl)cc54)c3)c2)C1 [Example 62]	B (B NHE3 pIC50 5-7)	C (C NHE3 pIC50 > 7)	35 to 75	81.5	–	–	–
CN1Cc2c(Cl)cc(Cl)cc2[C@H](c2cccc(S(=O)(=O)NCCOCCOCCNC(=O)CCC(CCC(=O)NCCOCCOCCNS(=O)(=O)c3cccc([C@@H]4CN(C)Cc5c(Cl)cc(Cl)cc54)c3)(CCC(=O)NCCOCCOCCNS(=O)(=O)c3cccc([C@@H]4CN(C)Cc5c(Cl)cc(Cl)cc54)c3)NC(=O)NCCS(=O)(=O)O)c2)C1 [Example 3]	–	–	< 35	–	< 100	< 100	110
CN1Cc2c(Cl)cc(Cl)cc2[C@H](c2cccc(S(=O)(=O)NCCOCCOCCNC(=O)NCCCN(CCCNC(=O)NCCOCCOCCNS(=O)(=O)c3cccc([C@@H]4CN(C)Cc5c(Cl)cc(Cl)cc54)c3)CCCNC(=O)NCCOCCOCCNS(=O)(=O)c3cccc([C@@H]4CN(C)Cc5c(Cl)cc(Cl)cc54)c3)c2)C1 [Example 43, (S)—N,N′-(15-(1-(3-((S)-6,8-dichloro-2-methyl-1,2,3,4-tetrahydroisoquinolin-4-yl)phenylsulfonamido)-10-oxo-3,6-dioxa-9,11-diazatetradecan-14-yl)-10,20-dioxo-3,6,24,27-tetraoxa-9,11,15,19,21-pentaazanonacosane-1,29-diyl)bis(3-((S)-6,8-dichloro-2-methyl-1,2,3,4-tetrahydroisoquinolin-4-yl)benzenesulfonamide)]	–	–	35 to 75	53.8	100 to 10000	< 100	–
CN1Cc2c(Cl)cc(Cl)cc2[C@H](c2cccc(S(=O)(=O)NCCOCCOCCNC(=O)NCCCC(CCCNC(=O)NCCOCCOCCNS(=O)(=O)c3cccc([C@@H]4CN(C)Cc5c(Cl)cc(Cl)cc54)c3)(CCCNC(=O)NCCOCCOCCNS(=O)(=O)c3cccc([C@@H]4CN(C)Cc5c(Cl)cc(Cl)cc54)c3)NC(=O)NC[C@H](O)[C@@H](O)[C@H](O)[C@H](O)CO)c2)C1 [Example 65]	B (B NHE3 pIC50 5-7)	C (C NHE3 pIC50 > 7)	35 to 75	112	–	–	–

From patent US10385024B2, “Compounds and methods for inhibiting NHE-mediated antiport in the treatment of disorders associated with fluid retention or salt overload and gastrointestinal tract disorders” (Ardelyx, Inc., priority 2012, dated 2019)
